In ChEMBL document CHEMBL4138122, “Azaphenothiazines - promising phenothiazine derivatives. An insight into nomenclature, synthesis, structure elucidation and biological properties” (Eur J Med Chem, 2017):
pIC50: −log10 of the molar value. ≈ marks a conversion by molar mass, not a printed value.

Legend:
[1] = tested on: Human immunodeficiency virus; assay: Antiviral activity against HIV infected in human MT4 cells; assay type: functional, organism-based; settings: Human immunodeficiency virus 1, MT4
[2] = tested on: Mus musculus; assay: Anti-inflammatory activity in mouse IL-1-induced paw inflammation model assessed as inhibition of neutrophil infiltration at 10 mg/kg, po; assay type: functional; settings: Mus musculus, po
[3] = target: Vascular cell adhesion protein 1 (Homo sapiens, UniProt P19320); assay: Inhibition of VCAM1 (unknown origin)
[4] = target: Intercellular adhesion molecule 1 (Homo sapiens, UniProt P05362); assay: Inhibition of ICAM1 (unknown origin)
[5] = Oral bioavailability in rat at 3 mg/kg; assay type: ADME, organism-based; settings: in vivo
[6] = Inhibition of LTB4 formation in rat polymorphonuclear leukocytes preincubated for 2 mins followed by A-23187 addition after 4 mins; assay type: functional, cell-based
[7] = tested on: Trachea; assay: Inhibition of egg albumin antigen challenge-induced contraction response in methacholine-primed guinea pig trachea at 3 ug/ml; assay type: functional; settings: Cavia porcellus
[8] = tested on: HOP-92; assay: Cytotoxicity against human HOP92 cells assessed as cell growth inhibition after 48 hrs by SRB assay; assay type: functional, cell-based; settings: HOP-92, 48 h
[9] = tested on: MCF7; assay: Cytotoxicity against human MCF7 cells assessed as cell growth inhibition after 48 hrs by SRB assay; assay type: functional, cell-based; settings: MCF7, 48 h
[10] = tested on: 786-0; assay: Cytotoxicity against human 786-O cells assessed as cell growth inhibition after 48 hrs by SRB assay; assay type: functional, cell-based; settings: 786-0, 48 h
[11] = tested on: Hs-578T; assay: Cytotoxicity against human Hs578T cells assessed as cell growth inhibition after 48 hrs by SRB assay; assay type: functional, cell-based
[12] = tested on: SNB-75; assay: Cytotoxicity against human SNB75 cells assessed as cell growth inhibition after 48 hrs by SRB assay; assay type: functional, cell-based; settings: SNB-75, 48 h
[13] = tested on: Escherichia coli; assay: Antibacterial activity against Escherichia coli; assay type: functional; settings: Escherichia coli
[14] = tested on: Bacillus cereus; assay: Antibacterial activity against Bacillus cereus; assay type: functional, organism-based
[15] = tested on: Aspergillus niger; assay: Antifungal activity against Aspergillus niger; assay type: functional
[16] = tested on: Ancylostoma caninum; assay: Anthelmintic activity against dog hookworm larvae infected in mouse assessed as protection against infection rate at 0.06%; assay type: functional
[17] = tested on: Staphylococcus aureus; assay: Antibacterial activity against methicillin-resistant Staphylococcus aureus; assay type: functional
[18] = tested on: Salmonella typhimurium; assay: Antibacterial activity against Salmonella typhimurium; assay type: functional, Salmonella enterica subsp. enterica serovar Typhimurium; settings: Salmonella enterica
[19] = tested on: SNB-19; assay: Cytotoxicity against human SNB19 cells incubated for 72 hrs by WST1 dye based assay; assay type: functional, cell-based; settings: SNB-19, 72 h
[20] = tested on: Rattus norvegicus; assay: Anti-asthmatic activity in rat assessed as inhibition of egg albumin-induced duration of symptoms of dyspnoea at 5 mg/kg, po administered 90 mins prior to dyspnoea induction; assay type: functional
[21] = tested on: Rattus norvegicus; assay: Anti-asthmatic activity in rat assessed as inhibition of egg albumin-induced duration of symptoms of dyspnoea at 3 mg/kg, po administered 90 mins prior to dyspnoea induction; assay type: functional
[22] = tested on: Aureobasidium pullulans; assay: Antimicrobial activity against Pullularia pullulans assessed as reduction in microbial growth at 100 ppm relative to control; assay type: functional
[23] = tested on: Aspergillus terreus; assay: Antimicrobial activity against Aspergillus terreus assessed as reduction in microbial growth at 100 ppm relative to control; assay type: functional
[24] = tested on: Staphylococcus aureus; assay: Antimicrobial activity against Staphylococcus aureus assessed as reduction in bacterial growth at 100 ppm relative to control; assay type: functional
[25] = tested on: Candida albicans; assay: Antimicrobial activity against Candida albicans assessed as reduction in […] growth at 100 ppm relative to control; assay type: functional
[26] = tested on: Trichophyton mentagrophytes; assay: Antimicrobial activity against Trichophyton mentagrophytes assessed as reduction in microbial growth at 100 ppm relative to control; assay type: functional
[27] = Antioxidant activity assessed as H2O2 scavenging activity; assay type: functional; settings: dose or concentration not given here
[28] = tested on: Mycobacterium tuberculosis; assay: Antitubercular activity against Mycobacterium tuberculosis H37Rv assessed as inhibition of bacterial growth at 6.25 ug/ml; assay type: functional; settings: read-out: GI
[29] = tested on: Mycobacterium tuberculosis; assay: Antitubercular activity against Mycobacterium tuberculosis H37Rv; assay type: functional
[30] = tested on: HFF-1; assay: Cytotoxicity against human HFF1 cells incubated for 72 hrs by WST1 dye based assay; assay type: cell-based; settings: HFF-1, 72 h
[31] = tested on: MCF7; assay: Cytotoxicity against human MCF7 cells incubated for 72 hrs by WST1 dye based assay; assay type: functional, cell-based; settings: MCF7, 72 h
[32] = tested on: T47D; assay: Cytotoxicity against human T47D cells; assay type: functional, cell-based
[33] = tested on: C32; assay: Cytotoxicity against human C32 cells incubated for 72 hrs by WST1 dye based assay; assay type: functional, cell-based; settings: C32, 72 h
[34] = species on record: Mus musculus; assay: Antioxidant activity in Swiss albino mouse assessed as LPO level per mg tissue; assay type: functional
[35] = Antioxidant activity assessed as DPPH radical scavenging activity; assay type: functional; settings: dose or concentration not given here
[36] = species on record: Mus musculus; assay: Antioxidant activity in Swiss albino mouse assessed as GSH level per mg tissue; assay type: functional
[37] = tested on: Candida albicans; assay: Antimicrobial activity against Candida albicans assessed as reduction in […] growth at 500 to 1000 ppm relative to control; assay type: functional
[38] = tested on: Trichophyton mentagrophytes; assay: Antimicrobial activity against Trichophyton mentagrophytes assessed as reduction in microbial growth at 1 to 10 ppm relative to control; assay type: functional
[39] = tested on: Bacillus subtilis; assay: Antimicrobial activity against Bacillus subtilis assessed as reduction in microbial growth at 1 to 10 ppm relative to control; assay type: functional
[40] = tested on: Aspergillus terreus; assay: Antimicrobial activity against Aspergillus terreus assessed as reduction in microbial growth at 1 to 10 ppm relative to control; assay type: functional
[41] = tested on: Staphylococcus aureus; assay: Antimicrobial activity against Staphylococcus aureus assessed as reduction in bacterial growth at 500 to 1000 ppm relative to control; assay type: functional

Sequence of Vascular cell adhesion protein 1 (P19320 whole entry): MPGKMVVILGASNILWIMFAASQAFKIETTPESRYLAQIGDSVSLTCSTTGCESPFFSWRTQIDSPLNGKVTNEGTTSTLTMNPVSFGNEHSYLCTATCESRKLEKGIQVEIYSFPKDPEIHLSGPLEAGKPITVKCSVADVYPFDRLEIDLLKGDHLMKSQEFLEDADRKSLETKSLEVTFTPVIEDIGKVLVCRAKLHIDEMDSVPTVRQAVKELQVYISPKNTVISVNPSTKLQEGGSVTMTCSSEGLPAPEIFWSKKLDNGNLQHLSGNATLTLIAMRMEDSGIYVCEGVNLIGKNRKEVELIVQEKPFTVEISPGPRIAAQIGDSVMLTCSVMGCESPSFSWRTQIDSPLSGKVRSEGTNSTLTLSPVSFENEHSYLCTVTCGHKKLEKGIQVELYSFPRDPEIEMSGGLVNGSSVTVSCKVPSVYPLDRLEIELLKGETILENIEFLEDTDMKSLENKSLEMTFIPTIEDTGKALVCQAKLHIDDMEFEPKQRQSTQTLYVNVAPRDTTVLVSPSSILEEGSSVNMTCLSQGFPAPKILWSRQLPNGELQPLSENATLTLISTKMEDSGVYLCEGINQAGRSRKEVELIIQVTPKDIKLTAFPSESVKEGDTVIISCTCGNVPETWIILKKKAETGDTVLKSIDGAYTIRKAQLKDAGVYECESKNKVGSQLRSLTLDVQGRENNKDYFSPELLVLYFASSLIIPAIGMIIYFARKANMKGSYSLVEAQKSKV
Sequence of Intercellular adhesion molecule 1 (P05362 whole entry): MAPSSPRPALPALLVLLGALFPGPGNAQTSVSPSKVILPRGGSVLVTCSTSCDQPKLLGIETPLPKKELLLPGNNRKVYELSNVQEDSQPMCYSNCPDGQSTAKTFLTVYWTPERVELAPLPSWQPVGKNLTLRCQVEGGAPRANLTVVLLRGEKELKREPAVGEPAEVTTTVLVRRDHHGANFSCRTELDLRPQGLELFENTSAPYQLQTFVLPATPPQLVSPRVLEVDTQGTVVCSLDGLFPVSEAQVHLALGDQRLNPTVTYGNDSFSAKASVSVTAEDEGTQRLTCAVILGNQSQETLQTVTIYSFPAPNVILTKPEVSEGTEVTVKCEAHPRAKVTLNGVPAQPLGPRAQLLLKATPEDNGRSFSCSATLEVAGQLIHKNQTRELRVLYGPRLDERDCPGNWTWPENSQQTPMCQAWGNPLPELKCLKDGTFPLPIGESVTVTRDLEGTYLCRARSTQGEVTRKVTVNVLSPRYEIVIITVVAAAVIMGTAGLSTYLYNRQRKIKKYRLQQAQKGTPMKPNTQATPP

Question: With `CCOCn1c(=O)[nH]c2c(c1=O)Nc1ccc(C)cc1S2` as the molecule, how does the pIC50 [1] read?
Answer: Its pIC50 is 5.34.

Question: With `O=C(O)CC1C2CCCC1CN(Cc1ccc3c(c1)Nc1nccnc1S3)C2` (stereo in doubt; 64c) as the molecule, how does the inhibition in vivo at 10 mg/kg [2] read?
Answer: Its inhibition in vivo at 10 mg/kg is 91.5%.

Question: What about the pIC50 [3] of the same molecule?
Answer: Its pIC50 is 5.60.

Question: And the pIC50 [4]?
Answer: Its pIC50 is 5.52.

Question: What about the bioavailability [5] of the same molecule?
Answer: The bioavailability was 98.5%.

Question: With `COc1ccc2c(c1)Sc1nccnc1N2C` as the molecule, how does the IC50 [6] read?
Answer: Its IC50 is 1 to 5 µg/mL (≈ 4.08 to 20.4 µM).

Question: And the inhibition at 3 µg/mL [7]?
Answer: Its inhibition at 3 µg/mL is 71%.

Question: Which results are given for `CCN(CC)CCN1c2nc3ccccc3cc2Sc2cc3ccccc3nc21`?
Answer: pIC50 [8]: ≥ 6.00; pIC50 [9]: ≥ 6.00

Question: With `Cc1ccc(S(=O)(=O)NCCN2c3nc4ccccc4cc3Sc3cc4ccccc4nc32)cc1` as the molecule, how does the pIC50 [10] read?
Answer: The pIC50 was 6.32.

Question: And the pIC50 [11]?
Answer: Its pIC50 is 5.77.

Question: What about the pIC50 [12] of the same molecule?
Answer: Its pIC50 is 5.77.

Question: Which results are given for `Oc1ncnc2c1N=c1c(c3c(c4ccccc14)=Nc1ccccc1S3)O2`?
Answer: MIC [13]: 87.1 to 97.1 µg/mL (≈ 235 to 262 µM); MIC [14]: 66.1 µg/mL (≈ 178 µM); MIC [15]: 79.4 µg/mL (≈ 214 µM)

Question: Which Activity [16] does the source give for `Clc1nc2c(nc1Cl)Sc1ccccc1N2` here?
Answer: Its Activity is 90%.

Question: Which MIC [17] does the source give for `Cc1ccc2c(c1)Sc1c(F)cc3c(=O)c(C(=O)O)cn(C4CC4)c3c1N2` here?
Answer: The MIC was 1.5 µg/mL (≈ 3.92 µM).

Question: What about the MIC [13] of the same molecule?
Answer: Its MIC is 1.5 µg/mL (≈ 3.92 µM).

Question: And the MIC [14]?
Answer: The MIC was 1.5 µg/mL (≈ 3.92 µM).

Question: And the MIC [18]?
Answer: Its MIC is 1.5 µg/mL (≈ 3.92 µM).

Question: With `C=CCN1c2cccnc2Sc2cccnc21` as the molecule, how does the IC50 [19] read?
Answer: The IC50 was 18.9 µg/mL (≈ 78.3 µM).

Question: For `O=C(O)c1cn(C2CC2)c2c3c(c(F)cc2c1=O)Sc1ccccc1N3`, which MIC [13] is on record?
Answer: The MIC was 0.75 µg/mL (≈ 2.04 µM).

Question: And the MIC [14]?
Answer: Its MIC is 3 µg/mL (≈ 8.14 µM).

Question: And the MIC [18]?
Answer: The MIC was 6 µg/mL (≈ 16.3 µM).

Question: What does the source list for `Oc1ccc2c(c1)Sc1nccnc1N2`?
Answer: IC50 [6]: 0.05 to 1 µg/mL (≈ 0.23 to 4.6 µM); inhibition in vivo at 5 mg/kg [20]: 47%; inhibition in vivo at 3 mg/kg [21]: 43%

Question: What does the source list for `COc1ccc2c(c1)Sc1c(F)cc3c(=O)c(C(=O)O)cn(C4CC4)c3c1N2`?
Answer: MIC [17]: 25 µg/mL (≈ 62.7 µM); MIC [18]: 6 µg/mL (≈ 15.1 µM)

Question: Which results are given for `Clc1nc2c(nc1Cl)N(CCC1CCCN1)c1ccccc1S2` (stereo unspecified)?
Answer: inhibition at 100 ppm [22]: 100%; inhibition at 100 ppm [23]: 100%; inhibition at 100 ppm [24]: 100%; inhibition at 100 ppm [25]: 100%; inhibition at 100 ppm [26]: 100%

Question: With `O=C(O)c1cn(C2CC2)c2c3c(c(F)cc2c1=O)Sc1cc(Cl)ccc1N3` as the molecule, how does the MIC [17] read?
Answer: Its MIC is no less than 100 µg/mL.

Question: For `O=C1C(c2ccc(Br)cc2)=C2Sc3cccnc3NC2c2ccccc21` (stereo unspecified), which inhibition [27] is on record?
Answer: The inhibition was less than 100%.

Question: For `O=c1[nH]c2c(Cl)ccc(Cl)c2c2c1Sc1cc(Cl)ccc1N2`, which inhibition of growth at 6.25 µg/mL [28] is on record?
Answer: Its inhibition of growth at 6.25 µg/mL is 67%.

Question: What about the MIC [29] of the same molecule?
Answer: Its MIC is greater than 6.25 µg/mL.

Question: With `CN(C)CCCN1c2ccccc2Sc2cccnc21` [PROTHIPENDYL] as the molecule, how does the IC50 [30] read?
Answer: The IC50 was no less than 23 µg/mL.

Question: What about the IC50 [31] of the same molecule?
Answer: Its IC50 is no less than 23 µg/mL.

Question: And the IC50 [32]?
Answer: The IC50 was 32.3 µg/mL (≈ 113 µM).

Question: What about the IC50 [19] of the same molecule?
Answer: The IC50 was no less than 23 µg/mL.

Question: What about the IC50 [33] of the same molecule?
Answer: The IC50 was no less than 23 µg/mL.

Question: Which Activity [34] does the source give for `COc1ccc2c(c1)c1c(c3nc4ccccc4c(=O)n32)Sc2cccc(OC)c2N1` here?
Answer: Its Activity is 4.5 to 4.6 nM.

Question: What about the inhibition [35] of the same molecule?
Answer: The inhibition was 45.6 to 47.3%.

Question: What about the Activity [36] of the same molecule?
Answer: The Activity was 6.8 nM.

Question: For `[O-][S+]1c2ccccc2Nc2nc(Cl)c(Cl)nc21` (stereo unspecified), which “inhibition (INH)” value [37] is on record?
Answer: The value was 100%.

Question: What about the “inhibition (INH)” value [38] of the same molecule?
Answer: Its value is 100%.

Question: What about the “inhibition (INH)” value [39] of the same molecule?
Answer: The value was 100%.

Question: What about the “inhibition (INH)” value [40] of the same molecule?
Answer: The value was 100%.

Question: What about the “inhibition (INH)” value [41] of the same molecule?
Answer: The value was 100%.
